For 58 compounds, IC50 results are on record in patent publication US7868005B2, “Pyrazinyl substituted piperazine-piperidines with CXCR3 antagonist activity” (Schering Corporation, priority 2005, dated 2011).

Like-named read-outs stand apart in the source and are kept apart here.

The assay concerns the target T1, human CXCR3 (N-delta 4) (Homo sapiens, UniProt P49682).
T1 construct: CD8 leader (N); Flag; expressed in transfected cells; membranes prepared
T1 sequence (P49682 5-368 limits assumed): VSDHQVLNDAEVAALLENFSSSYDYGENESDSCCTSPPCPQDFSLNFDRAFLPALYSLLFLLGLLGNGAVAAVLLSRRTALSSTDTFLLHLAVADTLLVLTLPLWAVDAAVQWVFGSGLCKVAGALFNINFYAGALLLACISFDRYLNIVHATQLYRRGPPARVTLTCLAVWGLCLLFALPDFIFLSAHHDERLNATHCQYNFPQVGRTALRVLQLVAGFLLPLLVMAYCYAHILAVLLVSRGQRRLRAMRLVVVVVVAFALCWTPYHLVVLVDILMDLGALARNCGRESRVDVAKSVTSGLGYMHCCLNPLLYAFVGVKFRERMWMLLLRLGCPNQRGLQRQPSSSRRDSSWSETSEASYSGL
Briefly: Human CXCR3 (N-delta 4) Scintillation Proximity Assay (SPA), [125I] IP-10 binding to Ba/F3-hCXCR3 membranes. (SPA uses beads or plates that emit light when radiolabelled molecules are held near them.)

Setting [1] is: IC50 rating, Table 1, read-out: IC50.

Consider `COC(=O)c1cnc(N2C[C@H](C)N(C3CCN(Cc4ccc(Cl)cc4F)CC3)C[C@H]2C)cn1` [compound 288], for which the IC50 under setting [1] is above 100 nM.

On to `CC[C@H]1CN(c2nc(N)c(C(N)=O)nc2Cl)CCN1C1CCN(Cc2ccc(Cl)cc2F)CC1` [compound 10], for which the IC50 under setting [1] was below 25 nM.

For `CC[C@H]1CN(c2ncc(C(N)=O)nc2Cl)CCN1C1CCN(Cc2ccc(Cl)cc2F)CC1` [compound 284], under setting [1], the IC50 was below 25 nM.

`CC[C@H]1CN(c2nc(N)c(C(=O)NC)nc2Cl)CCN1C1CCN(Cc2ccc(-n3cccn3)cc2)CC1` [compound 66]: the IC50 under setting [1] was below 25 nM.

Take `CC[C@H]1CN(c2nc(N)c(C(N)=O)nc2Cl)CCN1C1CCN(Cc2ccc(C(=O)OC)cc2)CC1` [compound 15]: the IC50 under setting [1] was below 25 nM.

With `CC[C@H]1CN(c2nc(N)c(C(=O)NCCO)nc2Cl)CCN1C1CCN(Cc2ccc(Cl)cc2O[C@H]2CCOC2)CC1` [compound 189], the IC50 under setting [1] fell in the range of 25 to 100 nM.

As for `CC[C@H]1CN(c2ncc(C(=O)NC3CC3)nc2C(F)(F)F)CCN1C1CCN(C(=O)c2ccc(F)c(F)c2)CC1` [compound 490], the half-maximal inhibitory concentration (IC50) under setting [1] was below 25 nM.

For the compound `CC[C@H]1CN(c2nc(NC(=O)C(F)(F)F)c(C(N)=O)nc2Cl)CCN1C1CCN(Cc2ccc(Cl)cc2F)CC1` [compound 292], the IC50 under setting [1] is below 25 nM.

With `CC[C@H]1CN(c2nc(N)c(C(N)=O)nc2Cl)CCN1C1CCN(Cc2ccc(Cl)cc2[C@@H](O)C(N)=O)CC1` [compound 28], the IC50 under setting [1] lay within 25 to 100 nM.

With `CNC(=O)c1cnc(N2C[C@H](C)N(C3CCN(Cc4ccc(Cl)cc4F)CC3)C[C@H]2C)cn1` [compound 287], the half-inhibitory concentration (IC50) under setting [1] is above 100 nM.

`CC[C@H]1CN(c2nc(N(C)C)c(C(=O)OC)nc2Cl)CCN1C1CCN(Cc2ccc(Cl)cc2)CC1` [compound 290]: the IC50 under setting [1] was below 25 nM.

As for `CC[C@H]1CN(c2nc(N)c(C(=O)N[C@@H](CO)C(C)O)nc2Cl)CCN1C1CCN(C(=O)c2ccc(Cl)cc2)CC1` (stereo partly shown) [compound 328], under setting [1], the IC50 was above 100 nM.

For `CC[C@H]1CN(c2nc(N)c(C(=O)NCCO)nc2Cl)CCN1C1CCN(C(=O)c2ccc(F)c(O)c2)CC1` [compound 419], the IC50 under setting [1] was below 25 nM.

Turning to `CC[C@H]1CN(c2nc(N)c(C(=O)NCCO)nc2Cl)CCN1C1CCN(C(=O)c2ccc(Cl)cc2C(C)C#N)CC1` (stereo partly shown) [compound 344], the concentration for half-maximal inhibition (IC50) under setting [1] is 25 to 100 nM.

On to `CC[C@H]1CN(c2nc(N)c(C(=O)NC[C@@H](C)O)nc2Cl)CCN1C1CCN(Cc2ccc(Cl)cc2C(O)C(=O)OC)CC1` (stereo partly shown) [compound 219], for which the IC50 under setting [1] was below 25 nM.

Take `CC[C@H]1CN(c2ncc(C(=O)OC)nc2C)[C@H](C)CN1C1CCN([C@@H](CO)c2ccc(Cl)cc2)CC1` [compound 465]: the IC50 under setting [1] is below 25 nM.

For `CC[C@H]1CN(c2nc(N)c(C(=O)NCCO)nc2Cl)CCN1C1CCN(C(=O)c2ccc(Cl)cc2N)CC1` [compound 339], under setting [1], the half-maximal inhibitory concentration (IC50) was below 25 nM.

As for `CC[C@H]1CN(c2nc(N)c(C(=O)NCCO)nc2Cl)CCN1C1CCN(Cc2ccc(OC(F)(F)F)cc2OCCOC)CC1` [compound 118], the IC50 under setting [1] is below 25 nM.

Turning to `CCc1ccc(C(=O)N2CCC(N3CCN(c4ncc(C(=O)NC5CC5)nc4C(F)(F)F)C[C@@H]3CC)CC2)cc1` [compound 487], the IC50 under setting [1] is below 25 nM.

Take `CC[C@H]1CN(c2ncc(C(=O)NC)nc2C)CCN1C1CCN(C(=O)c2ccc(Cl)cc2)CC1` [compound 437]: the IC50 under setting [1] is below 25 nM.

`CC[C@H]1CN(c2nc(N)c(C(=O)NCCNS(N)(=O)=O)nc2Cl)CCN1C1CCN(Cc2ccc(Cl)cc2)CC1` [compound 264]: the IC50 under setting [1] was below 25 nM.

`CC[C@H]1CN(c2nc(N)c(C(=O)NCCNS(=O)(=O)C(F)(F)F)nc2Cl)CCN1C1CCN(Cc2ccc(C#N)cc2)CC1` [compound 239]: under setting [1], the IC50 was below 25 nM.

As to `CC[C@H]1CN(c2nc(N)c(C(=O)NCCO)nc2Cl)CCN1C1CCN(Cc2ccc(OCCSC)c(F)c2)CC1` [compound 415], the IC50 under setting [1] was below 25 nM.

As for `CC[C@H]1CN(c2nc(N)c(C(=O)NN)nc2Cl)CCN1C1CCN(C(=O)c2ccc(Cl)cc2)CC1` [compound 358], the IC50 under setting [1] was above 100 nM.

As to `CC[C@H]1CN(c2nc(N)c(C(N)=O)nc2Cl)CCN1C1CCN(Cc2ccc(Cl)cc2CC(C)(C)O)CC1` [compound 30], the IC50 under setting [1] lay within 25 to 100 nM.

On to `CCNC(=O)c1nc(Cl)c(N2CCN(C3CCN(C(C)(C)c4ccc(Cl)cc4)CC3)[C@@H](C)C2)nc1N` [compound 106], for which, under setting [1], the IC50 was above 100 nM.

Consider `CC[C@H]1CN(c2nc(N)c(C(N)=O)nc2Cl)CCN1C1CCN(Cc2ccc(Cl)cc2CC(=O)N2CCOCC2)CC1` [compound 55], for which the IC50 under setting [1] was above 100 nM.

For the compound `CC[C@H]1CN(c2nc(N)c(C(=O)NCCO)nc2Cl)CCN1C1CCN(Cc2ccc(Cl)cc2OCCNS(C)(=O)=O)CC1` [compound 130], the IC50 under setting [1] is below 25 nM.

Regarding `CC[C@H]1CN(c2nc(N)c(C(=O)NCCO)nc2Cl)CCN1C1CCN(Cc2ccc(Cl)cc2F)CC1` [compound 113], under setting [1], the IC50 was below 25 nM.

Take `CC[C@H]1CN(c2nc(N)c(C(=O)N[C@@H]3CCN(C(=O)OC(C)(C)C)C3)nc2Cl)CCN1C1CCN(Cc2ccc(Cl)cc2)CC1` [compound 274]: the IC50 under setting [1] is above 100 nM.

In the case of `CCOC(=O)COc1cc(Cl)ccc1C(=O)N1CCC(N2CCN(c3nc(N)c(C(=O)NCCO)nc3Cl)C[C@@H]2CC)CC1` [compound 324], the half-inhibitory concentration (IC50) under setting [1] was above 100 nM.

In the case of `CC[C@H]1CN(c2nc(N)c(C(=O)NCCO)nc2Cl)CCN1C1CCN(C(=O)c2ccc(C)cc2O)CC1` [compound 321], the concentration for half-maximal inhibition (IC50) under setting [1] lay within 25 to 100 nM.

Take `CC[C@H]1CN(c2ncc(C(N)=O)nc2NC)CCN1C1CCN(C(=O)c2ccc(Cl)cc2)CC1` [compound 383]: the IC50 under setting [1] was above 100 nM.

Regarding `CC[C@H]1CN(c2nc(N)c(C(=O)NCCS(C)(=O)=O)nc2Cl)CCN1C1CCN(Cc2ccc(Cl)cc2)CC1` [compound 101], the IC50 under setting [1] lay in the range of 25 to 100 nM.

For `CC[C@H]1CN(c2nc(N)c(C(=O)NCCNc3ncccn3)nc2Cl)CCN1C1CCN(Cc2ccc(Cl)cc2)CC1` [compound 229], the half-maximal inhibitory concentration (IC50) under setting [1] was below 25 nM.

Take `CC[C@H]1CN(c2nc(N)c(C(=O)NC3CC3)nc2Cl)CCN1C1CCN(Cc2ccc(C#N)cc2OCC(=O)NC2CC2)CC1` [compound 92]: the IC50 under setting [1] was below 25 nM.

As for `CC[C@H]1CN(c2ncc(C(=O)NC)nc2C)CCN1C1CCN(C(=O)c2ccc(OC(F)(F)F)cc2)CC1` [compound 475], the IC50 under setting [1] is below 25 nM.

`CC[C@H]1CN(c2nc(N)c(C(=O)NCCO)nc2Cl)CCN1C1CCN(Cc2ccc(C#N)cc2OCCO)CC1` [compound 173]: the IC50 under setting [1] was below 25 nM.

For the compound `CC[C@H]1CN(c2nc(N)c(C(N)=O)nc2Cl)CCN1C1CCN(Cc2ccc(Cl)cc2C(N)=O)CC1` [compound 8], the IC50 under setting [1] was below 25 nM.

`CC[C@H]1CN(c2nc(N)c(C(N)=O)nc2Cl)CCN1C1CCN([C@@H](C(N)=O)c2ccc(Cl)cc2)CC1` [compound 57]: under setting [1], the IC50 is above 100 nM.

As to `CC[C@H]1CN(c2nc(N)c(C(=O)NCCO)nc2Cl)CCN1C1CCN(Cc2ccc(Cl)cc2CO)CC1` [Formula 7], the half-maximal inhibitory concentration (IC50) (human, read-out: human IC50) is below 1 nM.

Turning to `CC[C@H]1CN(c2nc(N)c(C(=O)NC)nc2Cl)CCN1C1CCN(C(=O)c2ccc(Cl)c(N)c2)CC1` [compound 365], under setting [1], the IC50 was above 100 nM.

On to `CC[C@H]1CN(c2nc(N)c(C(=O)OC)nc2Cl)CCN1C1CCN(Cc2ccc(Cl)cc2CCNS(C)(=O)=O)CC1` [compound 303], for which the IC50 under setting [1] was above 100 nM.

For `CC[C@H]1CN(c2nc(NC(=O)N(C)C)c(C(=O)OC)nc2Cl)CCN1C1CCN(Cc2ccc(Cl)cc2)CC1` [compound 291], the IC50 under setting [1] lay within 25 to 100 nM.

For `CC[C@H]1CN(c2nc(N)c(C(=O)OC)nc2Cl)CCN1C1CCN(Cc2ccc(C#N)cc2OCCOC)CC1` [compound 308], the IC50 under setting [1] was above 100 nM.

In the case of `CC[C@H]1CN(c2nc(N)c(C(=O)NCCO)nc2Cl)CCN1C1CCN(C(=O)c2ccc(F)c(F)c2F)CC1` [compound 351], the IC50 under setting [1] fell in the range of 25 to 100 nM.

As for `CC[C@H]1CN(c2nc(N)c(C(=O)NCCO)nc2Cl)CCN1C1CCN([C@H](CO)c2ccc(C#N)cc2)CC1` [compound 153], the IC50 under setting [1] is below 25 nM.

For the compound `CC[C@H]1CN(c2nc(N)c(C(=O)OC)nc2Cl)CCN1C1CCN(Cc2ccc(Cl)cc2CCNC(C)=O)CC1` [compound 309], the concentration for half-maximal inhibition (IC50) under setting [1] was above 100 nM.

`CC[C@H]1CN(c2nc(N)c(C(N)=O)nc2Cl)CCN1C1CCN(Cc2ccc(Cl)cc2N2CCN(C)C2=O)CC1` [compound 386]: the IC50 under setting [1] is below 25 nM.

Take `CC[C@H]1CN(c2nc(N)c(C(=O)NC[C@@H](C)O)nc2Cl)CCN1C1CCN(Cc2ccc(Cl)cc2[C@H](O)C(N)=O)CC1` [compound 218]: under setting [1], the 50% inhibitory concentration (IC50) was below 25 nM.

With `CC[C@H]1CN(c2nc(N)c(C(=O)NN)nc2Cl)CCN1C1CCN(Cc2ccc(Cl)cc2)CC1` [compound 271], under setting [1], the IC50 was below 25 nM.

Consider `CC[C@H]1CN(c2nc(N)c(C(=O)NCCO)nc2Cl)CCN1C1CCN(C(CCNC(C)=O)c2ccc(Cl)cc2)CC1` (stereo partly shown) [compound 179], for which the IC50 under setting [1] is 25 to 100 nM.

With `CC[C@H]1CN(c2nc(N)c(C(N)=O)nc2Cl)CCN1C1CCN(Cc2ccc(C(=O)NC)cc2)CC1` [compound 59], the IC50 under setting [1] is above 100 nM.

As to `CC[C@H]1CN(c2nc(N)c(C(=O)NCCO)nc2Cl)CCN1C1CCN(Cc2ccc(Cl)cc2C2=NCCN2)CC1` [compound 167], the IC50 under setting [1] was below 25 nM.

As to `CCNC(=O)NCCC(c1ccc(Cl)cc1)N1CCC(N2CCN(c3nc(N)c(C(=O)NCCO)nc3Cl)C[C@@H]2CC)CC1` (stereo partly shown) [compound 148], under setting [1], the half-inhibitory concentration (IC50) was below 25 nM.

Consider `CC[C@H]1CN(c2nc(N)c(C(=O)NC3CC3)nc2C)[C@H](C)CN1C1CCN(C(=O)c2ccc(Cl)cc2)CC1` [compound 480], for which the IC50 under setting [1] is below 25 nM.

Consider `CC[C@H]1CN(c2ncc(C(N)=O)nc2Cl)CCN1C1CCN([C@@H](C(=O)OC)c2ccc(Cl)cc2)CC1` [compound 476], for which the IC50 under setting [1] is below 25 nM.

`CC[C@H]1CN(c2nc(N)c(C(N)=O)nc2Cl)CCN1C1CCN(Cc2ccc(Cl)cc2CC(N)=O)CC1` [compound 17]: the IC50 under setting [1] was below 25 nM.

The IC50 is the concentration at which inhibition is half-maximal.
